Data taken from patent publication US20030232820A1, “Method for synthesizing oxazinones” (priority 2001, published 2003).
Blank lines part the entries; values can stand above or below the compound they belong to.

What was measured:
Micrococcus luteus = assay: Agar plate filter disc test for antibacterial activity; conditions: for Zone size: agar plate seeded with Micrococcus luteus, 12 hours at 30° C.; for antibacterial activity against Micrococcus luteus: agar plates, in words
[1] = tested on: glutamate-aspartate transaminase; conditions: in words, prior art; cited from earlier work
tuberculosis bacilli = conditions: in words, prior art; cited from earlier work

SMILES: C[C@H](C(=O)O)N1OCCCC1=O [Compound R, 2R-(3-Oxo-[1,2]Oxazinan-2-yl)-Propionic Acid]
Zone size (Micrococcus luteus; Weight 400 micrograms on disc): 23 mm
antibacterial activity against Micrococcus luteus (Micrococcus luteus): exhibited activity

SMILES: NC1CCONC1=O (racemic) [DL-cyclocanaline, 4-amino-tetrahydro-1,2-oxazin-3-one]
inhibition of glutamate-aspartate transaminase [1]: known to inhibit
Zone size (Micrococcus luteus; Weight 400 micrograms on disc): 48 mm
Zone size (Micrococcus luteus; Weight 600 micrograms on disc): 58 mm
antibacterial activity against Micrococcus luteus (Micrococcus luteus): exhibited activity
activity against tuberculosis bacilli (tuberculosis bacilli): exhibits activity

SMILES: CC1=C(C(=O)O)N2C(=O)[C@@H](NC(=O)Cc3ccccc3)[C@H]2SC1 [desacetoxycephalosporin G]
Zone size (Micrococcus luteus; Weight 10 micrograms on disc): 39 mm

melting point: 189 to 190 °C
SMILES: CC(C(=O)O)N1OCCC(NC(=O)Cc2ccccc2)C1=O (stereo not drawn) [UA, 2-(α-Carboxylethyl)-4-phenylacetylamino-1,2-oxazinan-3-one]
